Values quoted from earlier work as cited in patent US12251425B2, “Sustained-release lipid preformulation and pharmaceutical composition for sustained-release injection in form of lipid solution containing same” (IMDPHARM INC., priority 2019, dated 2025).

Details: 25° C.

In the case of sorbitan monooleate, the viscosity is listed as “about 1000 mPa·s”.
